Data published in patent publication US20260257987A1, “COMPOUNDS AND METHOD FOR UPREGULATION OF P53 THROUGH INDUCTION OF MDM2 DEGRADATION” (Georgia State University Research Foundation, Inc., priority 2022, published 2026).
Entries after “also recorded” stand apart in the source; their conditions may differ. Like-named read-outs stand apart in the source and are kept apart here.

What was measured:
EU-1 ALL cells = conditions: background; cited from earlier work
EU-1 cells = assay: Cytotoxicity test (CCK-8 cell viability) in EU-1 cells; assay type: cell-based; conditions: for IC50: read-out: IC50 (μM) in EU-1 cells; for fold more potent than BW-AQ-238: compared to BW-AQ-238
Description: (§1) Cell viability was assessed by using Cell Counting Kit-8 (CCK-8, Dojindo, Japan). EU-1 and RS4;11 cells were cultured in RPMI-1640 medium (Corning, USA); MCF7 and HEK-293 cells were cultured in MEM (Corning, USA); and HeLa and H9c2 cells were cultured in high glucose DMEM (Corning, USA). All the culture mediums were supplemented with 10% fetal bovine serum (Corning, USA) and 100 unit/ml penicillin, and […] streptomycin. For cytotoxicity assays, cells were seeded into 96-well plates at a density of 3× 10^5 cells per well (50 μL). Compounds were dissolved in DMSO (molecular biology grade, Sigma-Aldrich, USA) to make 10 mM stock solutions, which were serially diluted with the culture medium to various concentrations (final DMSO concentration=0.5%). A culture medium (50 μL) containing the anthraquinone analog was added directly to the cell suspension in each well immediately after seeding. After incubation for 24 h at 37° C. in a humidified atmosphere with 5% CO2, 10 μL of CCK-8 solution was added to each well, and the plate was incubated for an additional 2-4 h at 37° C. before measuring the optical density at 450 nm with a microplate reader (PerkinElmer Victor 2, USA). The cell viability of each well was calculated as the percentage of the untreated control according to the manufacturer's manual. All tests were performed in triplicates, and IC50 values were determined with six concentrations by non-linear regression using GraphPad Prism 9.

[1] = Thiol (NAC) reactivity study by HPLC; assay type: physicochemical; conditions: for order of reactivity with NAC (pseudo-first-order kinetics): 0.3 mM analog, 1.5 mM NAC
Description: HPLC was performed on Shimadzu LC-20AT HPLC system. Condition: mobile phase A: water with 0.05% TFA; B: acetonitrile with 0.05% TFA; gradient: 5-95% B, 0-10 min; […]; 5% B 12.1-15 min. Column: C18, 3.5 μm, 4.6×150 mm; UV detector monitored at 254 nm. For the thiol reactivity assay, a 0.3 mM solution of AQ-analogs was prepared in 0.5 mL PBS: MeOH (80:20) and warmed at 37° C. Next, 25 μL of NAC (from 30 mM stock solution in PBS) was added to the above solution. The resultant solution had final concentrations of 0.3 mM AQ-analogs and 1.5 mM NAC. 20 μL of the reaction mixture was injected into the HPLC at the designated time intervals. The area percentage values were determined via the integration of the area under the curve (AUC) of the chromatogram.

[2] = test system: RS4;11 cells (wild-type p53); assay: Cytotoxicity test of BW-AQ-365 (CCK-8) in RS4;11 cells; assay type: cell-based; conditions: Homo sapiens; RS4; 11, 25000 cells/well, 48 h, positive control
Description: Cell viability was assessed by using Cell Counting Kit-8 (CCK-8, Dojindo, Japan). RS4;11 cells (wild-type p53) were cultured in RPMI-1640 medium (Corning, USA). The culture mediums were supplemented with 10% fetal bovine serum (Corning, USA) and 100 unit/ml penicillin, and […] streptomycin. […] Compounds were dissolved in DMSO (molecular biology grade, Sigma-Aldrich, USA) to make 10 mM stock solutions, which were serially diluted with the culture medium to various concentrations (final DMSO concentration=0.5%). A culture medium (50 μL) containing BW-AQ-365 was added directly to the cell suspension in each well immediately after seeding. After incubation for 24-72 h at 37° C. in a humidified atmosphere with 5% CO2, 10 μL of CCK-8 solution was added to each well, and the plate was incubated for an additional 2-4 h at 37° C. before measuring the optical density at 450 nm with a microplate reader (PerkinElmer Victor 2, USA). The cell viability of each well was calculated as the percentage of the untreated control according to the manufacturer's manual. All tests were performed in triplicates, and IC50 values were determined by non-linear regression using GraphPad Prism 9.0.

RS4;11 cells = assay: Cytotoxicity test (CCK-8) in RS4;11 cells; assay type: cell-based; conditions: Homo sapiens
Description: as §1, with “A culture medium (50 μL) containing the anthraquinone analog was added directly to the cell suspension in each well immediately after seeding.” left out

MCF7 cells = assay: Cytotoxicity test (CCK-8) in MCF7 cells; assay type: cell-based; conditions: Homo sapiens
Description: as §1, with “A culture medium (50 μL) containing the anthraquinone analog was added directly to the cell suspension in each well immediately after seeding.” left out

HeLa cells = assay: Cytotoxicity test (CCK-8) in HeLa cells; assay type: cell-based; conditions: for IC50: Homo sapiens, HeLa cells
Description: as §1

H9c2 cells = assay: Cytotoxicity test (CCK-8) in H9c2 cells; assay type: cell-based; conditions: Rattus norvegicus
Description: as §1, with “A culture medium (50 μL) containing the anthraquinone analog was added directly to the cell suspension in each well immediately after seeding.” left out

HEK-293 cells = assay: Cytotoxicity test (CCK-8) in HEK-293 cells; assay type: cell-based; conditions: Homo sapiens, HEK293
Description: as §1, with “A culture medium (50 μL) containing the anthraquinone analog was added directly to the cell suspension in each well immediately after seeding.” left out

[3] = test system: MDM2 and p53 in EU-1 leukemia cells; assay: Western blot of MDM2 and p53 in EU-1 leukemia cells; assay type: cell-based; conditions: EU-1 cells; for MDM2 and p53 level by Western blot, dose and time dependence: GAPDH loading control
Description: Western Blot 5×10^6 cells were seeded in a 6-well plate and incubated for 12 h before the drug-loaded medium was added. The cells were harvested at designated time points, washed with cold PBS, and centrifuged at 1500 rpm×3 min. Then the cells were lysed by adding 100 μL of cold NP-40 buffer (supplied with complete™ protease Inhibitor tablet (Roche, USA)) and 1 mM PMSF (Thermo-Fisher, USA) on ice for 30 min. The cell lysates were centrifuged at 12500×g at 4° C. for 10 min, and the total protein concentration in the supernatant was measured with the BCA assay (Thermo-Fisher, USA). 30 μL of the cell lysate was mixed with 10 μL 4×Laemmli sample buffer and denatured at 95° C. for 5 min. The total protein concentration was adjusted with 1×Laemmli sample buffer. Equal amounts of protein sample were loaded onto a 4-15% gradient SDS-PAGE gel (Bio-rad, USA). After electrophoresis, the protein was transferred to the […] membrane (Bio-rad, USA) with the Trans-Blot Turbo system (Bio-rad, USA). The target protein was probed with the corresponding antibody using iBind Western Systems (Thermo-Fisher, USA), according to the manufacturer's manual. Antibody and dilution profile: MDM2 ((SMP14), 1:500 Santa Cruz, USA); p53 ((DO-1), 1:800, Santa Cruz, USA); GAPDH ((0411), 1:2000, Santa Cruz, USA) and HRP conjugated goat anti-mouse secondary antibody (1:2000, Bio-rad, USA). After incubation with Pierce ECL Plus Substrate (Thermo Scientific), chemiluminescent was detected and imaged with LSA^4000 (GE Healthcare, Fairfield, USA).

[4] = EU-1 cells, 24 h incubation, CCK-8
[5] = EU-1 cells, compared to BW-AQ-295

## O=C(CCl)Nc1cc(O)c2c(c1)C(=O)c1cccc(O)c1C2=O [BW-AQ-101, 2-chloro-N-(4,5-dihydroxy-9,10-dioxo-9,10-dihydroanthracen-2-yl)acetamide]
EU-1 ALL cells
  IC50: ~800 nM

## CC(=O)CCCOc1cccc2c1C(=O)c1c(OCCCC(C)=O)cc(NC(C)=O)cc1C2=O [BW-AQ-349, N-(9,10-dioxo-4,5-bis ((4-oxopentyl)oxy)-9,10-dihydroanthracen-2-yl)acetamide]
EU-1 cells; EU-1, 24 h
  IC50: > 100 µM
EU-1 cells; EU-1 cells
  cytotoxicity in EU-1 cells, in words: lack of activity
[1]; 37° C. in PBS, HPLC
  stability in presence of NAC: remained unchanged during the study duration (>400 min)
  order of reactivity with NAC (pseudo-first-order kinetics): BW-AQ-350 >BW-AQ-353 >BW-AQ-295 ~ BW-AQ-354 >>BW-AQ-349

## CC(=O)CCOc1cccc2c1C(=O)c1c(OCCC(C)=O)cc(NC(=O)CCl)cc1C2=O [BW-AQ-260, 2-chloro-N-(9,10-dioxo-4,5-bis(3-oxobutoxy)-9,10-dihydroanthracen-2-yl)acetamide]
EU-1 cells; [4]
  IC50: 0.45 µM
EU-1 cells; EU-1 cells
  fold more potent than BW-AQ-238: about 3 fold

## C=CS(=O)(=O)Nc1cc(OCCCC(C)=O)c2c(c1)C(=O)c1cccc(OCCCC(C)=O)c1C2=O [BW-AQ-354, N-(9,10-dioxo-4,5-bis ((4-oxopentyl)oxy)-9,10-dihydroanthracen-2-yl) ethenesulfonamide]
EU-1 cells; EU-1 cells
  cytotoxicity in EU-1 cells, in words: more potent than BW-AQ-353
EU-1 cells; [4]
  IC50: 3.45 ± 0.45 µM
[1]; 37° C. in PBS, HPLC
  order of reactivity with NAC (pseudo-first-order kinetics): BW-AQ-350 >BW-AQ-353 >BW-AQ-295 ~ BW-AQ-354 >>BW-AQ-349

## C=CC(=O)Nc1cc(OCCCC(C)=O)c2c(c1)C(=O)c1cccc(OCCCC(C)=O)c1C2=O [BW-AQ-353, N-(9,10-dioxo-4,5-bis ((4-oxopentyl)oxy)-9,10-dihydroanthracen-2-yl) acrylamide]
EU-1 cells; [4]
  IC50: 6.21 ± 0.45 µM
EU-1 cells; [5]
  fold decrease in potency / less potent compared to BW-AQ-295: about 15 fold
[1]; 37° C. in PBS, HPLC
  order of reactivity with NAC (pseudo-first-order kinetics): BW-AQ-350 >BW-AQ-353 >BW-AQ-295 ~ BW-AQ-354 >>BW-AQ-349

## COc1cccc2c1C(=O)c1c(O)c3c(c(O)c1C2=O)C[C@@](O)(C(=O)CO)C[C@@H]3O[C@H]1C[C@H](N)[C@H](O)[C@H](C)O1 [Doxorubicin, reference compound]
EU-1 cells; [4]
  IC50: 0.15 ± 0.02 µM
[2]
  IC50: 53.1 ± 6.1 nM

## CC(=O)CCCOc1cccc2c1C(=O)c1c(OCCCC(C)=O)cc(NC(=O)CCl)cc1C2=O [BW-AQ-295, 2-chloro-N-(9,10-dioxo-4,5-bis ((4-oxopentyl)oxy)-9,10-dihydroanthracen-2-yl)acetamide]
EU-1 cells; [4]
  IC50: 0.43 ± 0.06 µM
EU-1 cells; EU-1 cells
  fold more potent than BW-AQ-238: about 3 fold
RS4;11 cells
  IC50: 690 ± 100 nM
MCF7 cells
  IC50: 950 ± 170 nM
HeLa cells; HeLa vs MCF7
  fold less potency in HeLa cells compared to MCF7 cells: over 2 fold
HeLa cells
  IC50: 2310 ± 80 nM
H9c2 cells
  IC50: 1120 ± 200 nM
HEK-293 cells
  IC50: 1160 ± 340 nM
[3]; 0.8 μM
  MDM2 and p53 level by Western blot, time course: decreased MDM2 and increased p53 level were observed from the 4-h time point
[3]; 2 μM, 6 h
  MDM2 level by Western blot: decreased MDM2 to an almost undetectable level
[3]
  MDM2 and p53 level by Western blot, dose and time dependence: decrease MDM2 level and increase p53 level in a dose- and time-dependent manner; also recorded: downregulate MDM2 and upregulate p53 in EU-1 cells in a time- and dose-dependent fashion; also recorded: downregulation of MDM2 and upregulation p53
[1]
  reactivity towards thiol, in words: reacts with thiol species
[1]; 37° C. in PBS, HPLC
  order of reactivity with NAC (pseudo-first-order kinetics): BW-AQ-350 >BW-AQ-353 >BW-AQ-295 ~ BW-AQ-354 >>BW-AQ-349

## C#CC(=O)Nc1cc(OCCCC(C)=O)c2c(c1)C(=O)c1cccc(OCCCC(C)=O)c1C2=O [BW-AQ-350, N-(9,10-dioxo-4,5-bis ((4-oxopentyl)oxy)-9,10-dihydroanthracen-2-yl) propiolamide]
EU-1 cells; [4]
  IC50: 0.19 µM
EU-1 cells; [5]
  fold increase in potency compared to BW-AQ-295: 2 fold
RS4;11 cells
  IC50: 520 ± 70 nM
MCF7 cells
  IC50: 4930 ± 450 nM
HeLa cells
  IC50: 4670 ± 250 nM
H9c2 cells
  IC50: ~300 nM
HEK-293 cells
  IC50: 2350 ± 690 nM
[3]
  MDM2 and p53 level by Western blot, dose and time dependence: induced decrease in MDM2 levels in a dose- and time-dependent fashion; also recorded: downregulate MDM2 and upregulate p53 in EU-1 cells in a time- and dose-dependent fashion; also recorded: downregulation of MDM2 and upregulation p53
[1]
  reactivity towards thiol, in words: high reactivity towards nucleophile such as thiol and amino acid
[1]; 37° C. in PBS, HPLC
  order of reactivity with NAC (pseudo-first-order kinetics): BW-AQ-350 >BW-AQ-353 >BW-AQ-295 ~ BW-AQ-354 >>BW-AQ-349

## CC(=O)CCCCOc1cccc2c1C(=O)c1c(OCCCCC(C)=O)cc(NC(=O)CCl)cc1C2=O [BW-AQ-345, 2-chloro-N-(9,10-dioxo-4,5-bis ((5-oxohexyl)oxy)-9,10-dihydroanthracen-2-yl)acetamide]
EU-1 cells; EU-1, 24 h
  IC50: 0.79 ± 0.03 µM

## C#CC(N)=O [Propiolamide, reference compound]
EU-1 cells; [4]
  IC50: 33.5 ± 7.8 µM

## O=C(CCl)Nc1cc(OCCO)c2c(c1)C(=O)c1cccc(OCCO)c1C2=O [BW-AQ-238, reference compound]
EU-1 cells; [4]
  IC50: 0.74 ± 0.12 µM

## CC(=O)CCCOc1cc(NC(=O)CCl)cc2c1C(=O)c1c(O)cccc1C2=O [BW-AQ-336, 2-chloro-N-(5-hydroxy-9,10-dioxo-4-((4-oxopentyl)oxy)-9,10-dihydroanthracen-2-yl)acetamide]
EU-1 cells; [4]
  IC50: 0.84 ± 0.02 µM
EU-1 cells; [5]
  fold decrease in potency / less potent compared to BW-AQ-295: about 2 fold
